Data set [1] addresses T1, human FABP5 (Homo sapiens, UniProt Q01469).
T1 construct: FABP5 was purified and delipidated as described previously; made in house
Nature of the data set: Fluorescence displacement assay with NBD-stearate. The class given is binding. The conditions noted are these: test compound 10 µM, NBD-stearate 1 µM. The method, then:
FABP5 was purified and delipidated as described previously. FABP5 (30 µg), NBD-stearate (1 µM), and a competitor test compound were incubated in 30 mM Tris-HCl, 100 mM NaCl buffer (pH 7.6). Competitors included arachidonic acid, BMS309403, 48 test compounds from ChemDiv library, SB-FI-26 and SB-FI-49. The initial assay was run with buffer (30 mM Tris-HCl buffer), negative controls (buffer and NBD-stearate), positive controls (buffer, NBD-stearate, FABP5), and experimental wells with a variable test compound added (arachidonic acid or one of the 48 test compounds) at 10 µM. […] The fluorescent assays were tested in the wells of Microtest 96-well Assay Plates, Optilux (BD Biosciences, Franklin Lakes, NJ) and loss of fluorescence intensity was measured with a FLUOstar OPTIMA spectrofluorometer set to excitation and emission wavelengths of 460 nm and 544 nm, respectively. […] The Kd of NBD-stearate for FABP5 had been determined previously through incubating FABP5 with increasing concentrations of NBD-stearate.

Another data set in a line: Solubility in DMSO. The class given is physicochemical. The conditions noted are these: in DMSO at 25°C.
Data set [2] addresses T1, human FABP5. The conditions noted are these: cited from earlier work.
A further data set relates to CB1 receptors. The experiment in a line: Patch-clamp electrophysiology in brain slices (EPSCs of dorsal raphe 5-HT neurons). The class given is cell-based. To be noted: bath application 10 µM; DR 5-HT neurons; n = 8; mean ± SEM. The method, then:
Whole-cell-voltage clamp recordings of dorsal raphe (DR) serotonin (5-HT) neurons were performed as previously described. Briefly, DR neurons were visualized using an upright microscope (BX 51 WI, Olympus, Tokyo, Japan) equipped with a differential interference contrast and infrared imaging system. Somatic recordings from DR neurons were obtained with path electrodes ([…]) back-filled with potassium gluconate based internal solution of the following composition: 120 mM potassium gluconate, 10 mM KCl, 10 mM Na2-phosphocreatine, 10 mM HEPES, 1 mM MgCl2, 1 mM EGTA, 2 mM Na2-ATP, 0.25 mM Na-GTP, pH 7.3 (Adjusted with KOH; Osmolarity, 280 to 290 mOsmol/l). All the recordings were conducted in the presence of GABAA receptor antagonist picrotoxin (100 µM). Excitatory postsynaptic currents (EPSCs) were evoked with a single square stimulus (intensity, 1 to 10 V, duration, 100 to 200 µs) delivered via a glass stimulating electrode. […]
The amplitude of EPSCs was determined by measuring the average current during a 2-ms period at the peak of each EPSC and subtracted from the baseline current determined during a 5-ms time window before the stimulus. All EPSC amplitudes were normalized to the mean baseline amplitude recorded for at least 10 min before drug application. […]
On the technique in general: Patch clamp records ionic current or voltage across a cell membrane.

A further data set deals with T2, PPARα (Homo sapiens, UniProt Q07869).
T2 construct: expressed in transfected cells; host or cells: HeLa
T2 sequence (Q07869 1-468): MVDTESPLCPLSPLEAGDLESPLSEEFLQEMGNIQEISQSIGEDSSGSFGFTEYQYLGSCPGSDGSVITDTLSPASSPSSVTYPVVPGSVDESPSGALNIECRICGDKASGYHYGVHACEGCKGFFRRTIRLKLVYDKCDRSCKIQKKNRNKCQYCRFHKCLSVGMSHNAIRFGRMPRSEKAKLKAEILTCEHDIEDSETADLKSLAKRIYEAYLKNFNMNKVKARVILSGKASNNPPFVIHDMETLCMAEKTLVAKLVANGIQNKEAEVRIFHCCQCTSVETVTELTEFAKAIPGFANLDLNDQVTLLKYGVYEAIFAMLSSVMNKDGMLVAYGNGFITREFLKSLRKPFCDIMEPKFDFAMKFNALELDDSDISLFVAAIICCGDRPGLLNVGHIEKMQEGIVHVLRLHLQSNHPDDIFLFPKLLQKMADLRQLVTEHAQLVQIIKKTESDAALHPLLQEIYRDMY
The experiment in a line: PPARα transactivation in HeLa cells. Type of data set: cell-based. To be noted: reporter system, 6 hrs. The method, then: (§1) PPARα and PPARγ transactivation assays were performed in HeLa cells exactly as described. Briefly, cells were transfected with the PPAR reporter system, incubated with GW7647, rosiglitazone, or SB-FI-26 for 6 hrs, followed by measurement of luciferase and β-galactosidase activity using a luminometer as described.

The target in a further data set is T3, PPARγ (Homo sapiens, UniProt P37231).
T3 construct: expressed in transfected cells; host or cells: HeLa
T3 sequence (P37231 1-505): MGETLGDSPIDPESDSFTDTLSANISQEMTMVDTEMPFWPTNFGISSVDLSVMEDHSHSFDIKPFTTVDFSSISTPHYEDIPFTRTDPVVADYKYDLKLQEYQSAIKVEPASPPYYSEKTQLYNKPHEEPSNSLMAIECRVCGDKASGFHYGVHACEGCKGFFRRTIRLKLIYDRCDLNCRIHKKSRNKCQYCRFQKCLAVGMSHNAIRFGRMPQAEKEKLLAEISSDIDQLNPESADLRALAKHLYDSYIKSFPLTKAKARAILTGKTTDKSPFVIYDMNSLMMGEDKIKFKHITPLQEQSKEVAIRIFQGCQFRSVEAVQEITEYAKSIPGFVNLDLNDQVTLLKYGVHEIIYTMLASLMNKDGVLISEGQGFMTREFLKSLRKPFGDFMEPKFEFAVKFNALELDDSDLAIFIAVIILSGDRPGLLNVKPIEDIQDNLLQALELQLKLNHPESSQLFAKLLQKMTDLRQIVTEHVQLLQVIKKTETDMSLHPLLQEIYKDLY
Nature of the data set: PPARγ transactivation in HeLa cells. The conditions noted are these: reporter system, 6 hrs. Type of data set: cell-based. The method, then: as §1

The next data set deals with AEA uptake in HeLa cells. The experiment in a line: AEA uptake in HeLa cells. Type of data set: cell-based. The method, then:
AEA uptake assays in wild-type and FABP5 knockdown HeLa cells were performed exactly as described.

A further data set has as its target T4, rat FAAH (Rattus norvegicus, UniProt P97612).
T4 construct: expressed in transfected cells; host or cells: HeLa (homogenates)
T4 sequence (P97612 1-579): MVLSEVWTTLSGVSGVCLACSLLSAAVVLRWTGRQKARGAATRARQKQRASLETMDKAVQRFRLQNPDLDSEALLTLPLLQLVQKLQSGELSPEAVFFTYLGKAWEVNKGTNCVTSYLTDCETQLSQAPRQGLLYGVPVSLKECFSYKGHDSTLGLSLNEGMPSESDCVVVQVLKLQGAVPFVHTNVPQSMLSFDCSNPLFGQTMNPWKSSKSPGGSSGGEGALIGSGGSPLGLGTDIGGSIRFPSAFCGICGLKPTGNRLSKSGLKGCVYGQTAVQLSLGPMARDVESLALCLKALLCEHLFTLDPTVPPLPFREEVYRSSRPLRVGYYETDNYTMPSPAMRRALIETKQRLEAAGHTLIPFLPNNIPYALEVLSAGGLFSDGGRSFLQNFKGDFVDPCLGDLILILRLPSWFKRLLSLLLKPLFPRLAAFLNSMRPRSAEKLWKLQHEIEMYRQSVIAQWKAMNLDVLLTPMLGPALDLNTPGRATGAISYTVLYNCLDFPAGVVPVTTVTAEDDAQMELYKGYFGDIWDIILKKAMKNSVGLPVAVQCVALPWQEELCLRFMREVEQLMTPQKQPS
The experiment in a line: FAAH enzyme assay ([14C]AEA hydrolysis in HeLa homogenates). Type of data set: biochemical. The conditions noted are these: FAAH-transfected HeLa homogenates. The method, then: Enzyme assays measuring the hydrolysis of [^14C]AEA in the presence of SB-FI-26 or the FAAH inhibitor URB597 were carried out in HeLa homogenates expressing rat FAAH as described.

The test system of data set [3] is male C57Bl6 mice. The experiment in a line: Formalin test. Type of data set: in vivo. The method, then: (§2) We used male C57Bl6 mice (22–30 g, Taconic Farms) for all experiments. The animals were group housed at room temperature and kept on a 12∶12 hour light∶dark cycle with ad libitum access to water and food. The animals were habituated to the experimental room for one week before testing.
Mice were habituated to the observation chamber (Plexiglas box, 25 cm×25 cm×25 cm) for 30 min prior to formalin injection. The mice subsequently received an injection of formalin (2.5% in saline, 20 µl) into the plantar surface of the right hind paw using a 27 gauge needle. The animals were immediately placed back into the observation chamber and nocifensive behavior (time spent licking or biting the paw) was recorded for 60 min. The formalin test consists of two phases with the first phase (0–5 min) reflecting nociceptor activation and the second phase (15–45 min) reflecting an inflammatory pain response.

The subject of data set [4] is male C57Bl6 mice. The experiment in a line: Carrageenan-induced paw edema and thermal hyperalgesia. Type of data set: in vivo. The method, then: as §2
Paw edema was induced by injecting 1% λ-carrageenan (20 µl, in sterile saline) into the plantar surface of the left hind paw and a control solution of saline into the right hind paw using a 27 gauge needle. Paw diameters were measured before carrageenan injection and 4 hours after injection using digital electronic calipers (Fisher) and expressed to the nearest ±0.01 mm. SB-FI-26 (20 mg/kg, i.p.) was dissolved in ethanol∶emulphor∶saline (1∶1∶18), requiring sonication and gentle heating for solubilization, and administered 45 min prior to injection of carrageenan. The cannabinoid receptor antagonists, rimonabant and SR144528 (3 mg/kg, i.p.), in ethanol∶emulphor∶saline (1∶1∶18), were injected 15 min before the FABP inhibitor. Edema is reported as the change in paw diameter at 4 hr over the baseline. Changes in paw diameter of saline-injected contralateral paws were negligible. Thermal hyperalgesia measured the latency to withdraw the paw from a focused beam of radiant heat applied to the plantar surface of the hind paw using a Hargreaves plantar apparatus (Ugo Basile) set at an intensity of 3.0. For each mouse, the average latencies consisted of three trials spaced at least 5 minutes apart. The mice were habituated to the test chamber for 30 min. The cutoff time was set at 30 sec.
A general note: The carrageenan paw model is a standard test of acute inflammation.

These results are taken from paper PMC3517626, “Targeting Fatty Acid Binding Protein (FABP) Anandamide Transporters – A Novel Strategy for Development of Anti-Inflammatory and Anti-Nociceptive Drugs” (PLoS ONE, 2012).

In general, inhibition refers to the percentage by which the read-out fell short of the control. One may read the solubility as how much of the substance goes into solution per volume. A high value points to a readily soluble substance. One may read the Ki as a dissociation constant, usually derived from enzyme kinetics or from competition with a known ligand. A word on the Kd: it is the equilibrium constant for the complex coming apart.

Values after ≈ are worked out from the molar mass of the structure shown.

T1 sequence (Q01469 whole entry): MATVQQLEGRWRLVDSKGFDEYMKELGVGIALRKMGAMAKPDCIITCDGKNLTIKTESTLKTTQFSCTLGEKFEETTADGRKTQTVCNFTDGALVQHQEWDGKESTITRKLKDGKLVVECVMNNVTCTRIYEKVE

Take `Cn1c(C(=O)O)c(CC(=O)N2CCC(Cc3ccccc3)CC2)c2ccccc21` [SB-FI-31]: at human FABP5 [1], the inhibition at 10 µM was at least 50%.

In the case of `O=C(O)[C@H]1[C@@H](c2ccccc2)[C@H](C(=O)Oc2cccc3ccccc23)[C@@H]1c1ccccc1` [SB-FI-49, γ-Truxillic acid 1-naphthyl ester], the solubility in the data set “Solubility in DMSO” turned out to be 0.2 mM (≈ 84.5 µg/mL).

For `CCCCC/C=C\C/C=C\C/C=C\C/C=C\CCCC(=O)O` [arachidonic acid], the Ki at human FABP5 [2] (arachidonic acid, positive control, binding to FABP5, ref not given) is 130 nM.

`O=C(O)[C@H]1[C@@H](c2ccccc2)[C@H](C(=O)Oc2cccc3ccccc23)[C@@H]1c1ccccc1` [SB-FI-26, α-Truxillic acid 1-naphthyl ester] had a solubility in “Solubility in DMSO” of 1 mM (≈ 422 µg/mL). For the same compound, in the data set with CB1 receptors, the “amplitude of EPSCs” value was 107±6.7 % of baseline. In addition, the “activation of PPARα” value on PPARα is given as about 2 fold. In addition, the “activation of PPARγ” value on PPARγ was about 3 fold. Besides, in the data set on AEA uptake in HeLa cells (HeLa cells bearing a knockdown of FABP5 (shRNA)), the AEA uptake entry is recorded as “failed to reduce AEA uptake”. Further, in the data set with AEA uptake in HeLa cells (wild-type HeLa cells), the “cellular AEA accumulation (AEA uptake)” value is given as “significantly inhibited cellular AEA accumulation”. Besides, the “inhibition of FAAH (AEA hydrolysis)” value on rat FAAH is reported as “does not inhibit FAAH”. Besides, the “nocifensive behavior, first phase of the formalin test” value in the data set with male C57Bl6 mice [3] (20 mg/kg, i.p., first phase 0–5 min) was “significantly reduced nocifensive behavior”. Further, in the data set on male C57Bl6 mice [3] (intraplantar injection of 20 µg, no formalin), the “nocifensive behavior when administered alone” value is “did not evoke nocifensive behavior”. In addition, the carrageenan-induced thermal hyperalgesia result in the data set with male C57Bl6 mice [4] (20 mg/kg, i.p., 45 min prior to carrageenan) is listed as “significantly reduced”. In the data set on male C57Bl6 mice [4] (20 mg/kg, i.p., 45 min prior to carrageenan, paw diameter at 4 hr), the carrageenan-induced paw edema result is “significantly reduced”. For the same compound, the “antinociceptive and anti-edematous effects after pretreatment with rimonabant and SR144528” value in the data set on male C57Bl6 mice [4] (SB-FI-26 20 mg/kg i.p., antagonists 3 mg/kg i.p. 15 min before) was “completely reversed”. Besides, the “paw edema when administered alone” value in the data set with male C57Bl6 mice [4] (without carrageenan) is recorded as “did not induce paw edema”.

As to `CCCCCCC(CCCCCCCCCCC(=O)O)N(C)c1ccc([N+](=O)[O-])c2nonc12` (centres unmarked) [NBD-stearate, 12-N-methyl-(7-nitrobenz-2-oxa-1,3-diazo)aminostearic acid], the Kd at human FABP5 [2] (one site binding analysis, determined previously, read-out: Kd of NBD-stearate for FABP5) is 160 nM.

`O=C(O)[C@H]1CC(=O)N(Cc2ccc3c(c2)OCO3)/C(=N/c2ccc(F)cc2)S1` [SB-FI-27] returned an inhibition at 10 µM at human FABP5 [1] of at least 50%.

Turning to `CCc1c(-c2ccccc2)c(-c2ccccc2)nn1-c1ccccc1-c1cccc(OCC(=O)O)c1` [BMS309403, reference compound], the solubility in “Solubility in DMSO” is 1 mM (≈ 475 µg/mL).

For the compound `COc1cccc([C@@H]2Oc3ccccc3[C@@H]3CC(c4cccs4)=CN32)c1CC(=O)O` [SB-FI-19], the inhibition at 10 µM on human FABP5 [1] is at least 50%.
